One assay deals with T1, human liver cathepsin B (Homo sapiens, UniProt P07858).
T1 construct: purchased Sigma, EMDbiosciences; host or cells: human liver
The assay is described as follows: Specificity assay, cathepsin B. The class given is biochemical. The method, then: (§1) The specificities of compounds of the present disclosure were determined against a variety of serine proteases: human neutrophil elastase (HNE), porcine pancreatic elastase (PPE) and human pancreatic chymotrypsin and one cysteine protease: human liver cathepsin B. In all cases a 96-well plate format protocol using a fluorometric Amino-Methyl-Coumarin (AMC) substrate specific for each enzyme was used as described previously (PCT Patent Application No. WO 00/09543) with some modifications to the serine protease assays. All enzymes were purchased from Sigma, EMDbiosciences while the substrates were from Bachem, Sigma and EMDbiosciences.
(§2) Compound concentrations varied from 100 to 0.4 μM depending on their potency. The enzyme assays were each initiated by addition of substrate to enzyme-inhibitor pre-incubated for 10 min at room temperature and hydrolysis to 15% conversion as measured on CYTOFLUOR®.
100 mM NaOAC (Sodium Acetate) pH 5.5, 3% DMSO, 1 mM TCEP (Tris(2-carboxyethyl)phosphine hydrochloride), 5 nM Cathepsin B (enzyme stock activated in buffer containing 20 mM TCEP before use), and 2 μM Z-FR-AMC diluted in H2O.
(§3) The percentage of inhibition was calculated using the formula: [1−((UVinh−UVblank)/(UVctl−UVblank))]×100
(§4) A non-linear curve fit was applied to the inhibition-concentration data, and the 50% effective concentration (IC50) was calculated by the use of Excel XLfit software.

Assay [1] has as its target T2, porcine pancreatic elastase (PPE) (Sus scrofa, UniProt P00772).
T2 construct: purchased Sigma, EMDbiosciences
The assay is described as follows: Specificity assay, porcine pancreatic elastase. The class given is biochemical. The method, then: as §1, §2
(§5) 50 mM Tris-HCl, pH 8.0, 50 mM NaCl, 0.1 mM […], 3% DMSO, 0.02% Tween-20, 5 μM succ-AAPV-AMC and 20 nM HNE or 8 nM PPE;
as §3, §4

Assay [2] has as its system HCV replicon (Renilla luciferase reporter) in HUH-7 cells. The assay is described as follows: HCV replicon luciferase reporter assay. The class given is cell-based, Hepatitis C virus (strain 1b). The settings on record: Huh-7, 96 h, 4 days. For orientation: In antiviral work, replicon cells carry a viral genome segment that copies itself.
Assay [3] deals with T3, human pancreatic chymotrypsin (Homo sapiens, UniProt P17538).
T3 construct: purchased Sigma, EMDbiosciences
The assay is described as follows: Specificity assay, chymotrypsin. The class given is biochemical. As for the experimental part:
as §1, §2
50 mM Tris(hydroxymethyl)aminomethane hydrochloride (Tris-HCl) pH 8, 0.5 M Sodium Sulfate (Na2SO4), 50 mM NaCl, 0.1 mM EDTA, 3% DMSO, 0.01% Tween-20 with 5 μM LLVY-AMC and 1 nM Chymotrypsin.
as §3, §4

For assay [4], the target named is T4, human neutrophil elastase (HNE) (Homo sapiens, UniProt P08246).
T4 construct: purchased Sigma, EMDbiosciences
T4 sequence (P08246 30-267): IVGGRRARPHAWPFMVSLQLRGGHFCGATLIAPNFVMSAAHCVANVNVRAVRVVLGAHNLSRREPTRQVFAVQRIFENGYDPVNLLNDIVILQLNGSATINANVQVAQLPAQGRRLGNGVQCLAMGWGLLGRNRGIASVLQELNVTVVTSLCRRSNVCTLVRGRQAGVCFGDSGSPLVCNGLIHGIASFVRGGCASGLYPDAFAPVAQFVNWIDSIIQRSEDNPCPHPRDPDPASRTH
The assay is described as follows: Specificity assay, human neutrophil elastase. The settings on record: read-out: HLE (specificity assay IC50). The class given is biochemical. The method, then: as §1, §2, §5, §3, §4

Bounds are passed on as bounds.

T3 sequence (P17538 19-263): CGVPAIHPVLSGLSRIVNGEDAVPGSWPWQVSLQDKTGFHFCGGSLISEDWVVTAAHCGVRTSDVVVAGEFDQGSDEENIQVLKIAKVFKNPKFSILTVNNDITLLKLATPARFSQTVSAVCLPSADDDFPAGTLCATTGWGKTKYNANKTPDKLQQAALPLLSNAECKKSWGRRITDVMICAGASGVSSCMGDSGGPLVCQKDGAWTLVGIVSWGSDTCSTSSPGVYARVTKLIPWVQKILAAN
T2 sequence (P00772 27-266): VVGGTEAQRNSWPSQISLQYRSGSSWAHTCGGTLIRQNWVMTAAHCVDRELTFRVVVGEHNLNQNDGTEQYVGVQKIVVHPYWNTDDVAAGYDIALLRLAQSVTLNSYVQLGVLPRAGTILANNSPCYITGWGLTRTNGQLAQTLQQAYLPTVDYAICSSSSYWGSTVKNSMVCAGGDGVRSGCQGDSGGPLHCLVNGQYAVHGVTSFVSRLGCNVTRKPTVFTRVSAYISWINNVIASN

For `C=C[C@@H]1C[C@]1(NC(=O)[C@@H]1C[C@@](SCCCC)(c2ccc(-c3ccccc3)cc2)CN1C(=O)[C@@H](NC(=O)OC(C)(C)C)C(C)(C)C)C(=O)NS(=O)(=O)C1CC1` [Example 1, tert-butyl (S)-1-((2S,4R)-4-(biphenyl-4-yl)-4-(butylthio)-2-((1R,2S)-1-(cyclopropylsulfonylcarbamoyl)-2-vinylcyclopropylcarbamoyl)pyrrolidin-1-yl)-3,3-dimethyl-1-oxobutan-2-ylcarbamate], the IC50 (commonly the midpoint of a concentration-inhibition curve) against human liver cathepsin B is 7.5 µM; in assay [1] it was above 25 µM; in assay [3], 13.2 µM; in assay [4], above 12.1 µM. The EC50 (in general, the concentration that produces a half-maximal response) in assay [2] was found to be 0.006 µM.

Values taken from patent US7964560B2, “Hepatitis C virus inhibitors” (Bristol-Myers Squibb Company, priority 2008, dated 2011).
